Laboratory results from patent US12377119B2, “Natural killer cells” (IMPERIAL COLLEGE INNOVATIONS LIMITED, priority 2018, dated 2025).
“Also recorded” adds a separate entry of the source.

Legend:
E4bp4 = conditions: previously shown by the inventors; cited from earlier work
NK cells = conditions: previously shown by the inventors; cited from earlier work
REV-ERBβ = target: T1, REV-ERBβ (Homo sapiens, UniProt Q14995); assay: Dual-luciferase Bmal-luc reporter assay in HEK293T cells transfected with REV-ERBβ; type: cell-based; conditions: 10 μM
T1 construct: expressed in transfected cells; host or cells: HEK293T
T1 sequence (Q14995 1-579): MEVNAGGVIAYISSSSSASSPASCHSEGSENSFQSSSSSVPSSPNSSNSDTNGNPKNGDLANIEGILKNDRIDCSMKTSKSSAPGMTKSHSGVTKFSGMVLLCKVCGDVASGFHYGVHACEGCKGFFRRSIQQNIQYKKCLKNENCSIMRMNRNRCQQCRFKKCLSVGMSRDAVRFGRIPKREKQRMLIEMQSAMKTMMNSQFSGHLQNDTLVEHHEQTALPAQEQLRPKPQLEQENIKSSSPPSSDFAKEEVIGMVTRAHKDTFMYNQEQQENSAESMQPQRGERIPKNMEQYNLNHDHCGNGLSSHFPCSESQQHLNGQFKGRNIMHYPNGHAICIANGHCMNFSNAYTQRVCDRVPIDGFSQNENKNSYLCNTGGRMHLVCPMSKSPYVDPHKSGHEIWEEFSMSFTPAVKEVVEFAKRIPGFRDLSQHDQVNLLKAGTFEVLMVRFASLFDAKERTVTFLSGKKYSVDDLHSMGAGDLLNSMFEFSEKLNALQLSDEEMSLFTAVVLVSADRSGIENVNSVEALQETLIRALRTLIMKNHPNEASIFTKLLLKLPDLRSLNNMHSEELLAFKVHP
Protocol: (§1) HEK293T cells were defrosted and maintained in DMEM supplemented with 10% FCS and 1% P/S at 37° C. and 5% CO2. Cells were plated in a 24-well plate (7·10^4 cells/well in 0.5 mL of DMEM+10% FCS). 24 h after seeding, cells were transfected with 100 ng of Bmal-luc, 10 ng of pRL-CMV Renilla as an internal control and 10 ng of REV-ERBα or the empty vector pcDNA3 as a control. All conditions were equalled to a total of 400 ng of DNA by using BSM. In order to prepare transfection samples, calculated amounts of DNA needed for each condition were prepared in Opti-MEM and Fugene was added in a 5:2 Fugene:DNA ratio. Mixtures were vortexed to assure homogeneity and left to incubate for 15 min at rt. Afterwards, each DNA mix was transferred into the 24-well plate containing the pre-seeded cells, with each condition repeated by triplicate. 5 h after transfection, cells were treated with compounds 2-12, AG1-AG5 or DMSO as vehicle. Solution of the compounds in DMEM were prepared at a double concentration than the final desired one, and 0.5 mL of these solutions were added to each well. 24 h after transfection, cells were lysed and luciferase activity was measured using Dual-Luciferase Reporter Assay System E2920 (Promega). To perform the experiment, cells were lysed by adding 50 μL of passive lysis buffer (PLB) (1:5 dilution) to each well and gently stirring for 30 min. Each cell lysate was transferred to a 96-well plate. 50 μL of Dual-Glo reagent were dispensed into each well, tapped gently to mix and incubated for 10 min. Luminescence of firefly luciferase was measured using a Tecan VICTOR Light Luminescent counter equipment. Then, 50 μL of Stop&Glo reagent were dispensed to quench firefly activity and activate Renilla luciferase, incubated for 10 min and measured. Firefly activity was normalized to Renilla luciferase activity. Results were analysed using Welch's corrected parametric t-test.
The method of Example 2 was repeated but with 10 ng of REV-ERBβ used in place of REV-ERBa. Compounds 4, 66, 69 and 73 were tested (generated as described in Example 1). Agonist compound AG2 and DMSO were also tested as comparators.
The method of Example 5 was repeated using Compounds 18 and 19 (generated as described in Example 1). Agonist compound AG5 and DMSO were also tested as comparators.

REV-ERBα = target: T2, REV-ERBα (Homo sapiens, UniProt P20393); assay: Dual-luciferase Bmal-luc reporter assay in HEK293T cells transfected with REV-ERBα; type: cell-based; conditions: 10 μM
T2 construct: expressed in transfected cells; host or cells: HEK293T
T2 sequence (P20393 1-614): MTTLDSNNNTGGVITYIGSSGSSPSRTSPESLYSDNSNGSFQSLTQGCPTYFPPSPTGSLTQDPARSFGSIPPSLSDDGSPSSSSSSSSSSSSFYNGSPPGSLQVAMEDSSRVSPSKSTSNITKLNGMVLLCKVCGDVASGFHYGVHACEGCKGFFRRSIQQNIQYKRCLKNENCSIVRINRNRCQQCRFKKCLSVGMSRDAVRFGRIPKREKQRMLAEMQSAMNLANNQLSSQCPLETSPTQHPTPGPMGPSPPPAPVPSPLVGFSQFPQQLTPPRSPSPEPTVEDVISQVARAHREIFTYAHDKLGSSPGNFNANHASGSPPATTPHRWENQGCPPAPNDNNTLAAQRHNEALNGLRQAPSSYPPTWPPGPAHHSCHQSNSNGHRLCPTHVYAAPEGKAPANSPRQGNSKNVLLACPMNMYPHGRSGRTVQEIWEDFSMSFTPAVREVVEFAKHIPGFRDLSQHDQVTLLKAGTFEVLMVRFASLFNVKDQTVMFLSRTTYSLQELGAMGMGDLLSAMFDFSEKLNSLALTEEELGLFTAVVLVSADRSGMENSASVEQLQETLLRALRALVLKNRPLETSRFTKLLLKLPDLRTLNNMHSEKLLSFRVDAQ
Protocol: as §1
The method of Example 2 was repeated using Compounds 70 to 72 (generated as described in Example 1). Compounds 4, 7 and 11 (tested in Example 2) were used as a positive control for REV-ERB inhibitory activity, agonist compound AG2 (also tested in Example 2) and DMSO were also tested as comparators.
The method of Example 2 was repeated using Compounds 64 to 66, 69 and 70 to 73 (generated as described in Example 1). Once again, Compounds 4, 7 and 11 (tested in Example 2) were used as a positive control for REV-ERB inhibitory activity, agonist compound AG2 (also tested in Example 2) and DMSO were also tested as comparators.
The method of Example 2 was repeated using Compounds 16 to 19, 27, 28 and 44 (generated as described in Example 1). Once again, Compounds 4, 7 and 11 (tested in Example 2) were used as a positive control for REV-ERB inhibitory activity, agonist compound AG2 (also tested in Example 2) and DMSO were also tested as comparators.

[1] = FIG. 8, two independent experiments in triplicate
[2] = FIG. 3, three independent experiments in triplicate, comparison with SR8278
[3] = FIG. 4, two independent experiments in triplicate, comparison with SR8278
[4] = FIG. 6, three independent experiments in triplicate

SMILES | Effect on REV-ERBβ activity (Bmal-luc luciferase expression) (REV-ERBβ; [1]) | Effect on REV-ERBα activity (Bmal-luc luciferase expression) (REV-ERBα; [2]) | Effect on REV-ERBα activity (Bmal-luc luciferase expression) (REV-ERBα; [3]) | Effect on REV-ERBβ activity (Bmal-luc luciferase expression) (REV-ERBβ; [4]) | further results
CCOC(=O)C1Cc2ccccc2CN1C(=O)c1ccc(SC)s1 (stereo not shown) [SR8278] |  |  |  |  | E4bp4 expression (E4bp4): increases E4bp4 expression; NK cell production (NK cells): increases NK cell production
CCOC(=O)C1Cc2ccccc2CN1C(=O)c1ccnn1C (racemic) [Compound 18] | antagonistic activity |  |  |  | 
CCOC(=O)C1Cc2ccccc2CN1S(=O)(=O)c1cccc2ccccc12 (stereo not shown) [AG2] | agonist | agonists | agonist | agonist | Effect on REV-ERBα activity (Bmal-luc luciferase expression) (REV-ERBα; FIG. 5, three independent experiments in triplicate): agonist
CCOC(=O)C1Cc2ccccc2CN1C(=O)OCC (racemic) [Compound 4, Diethyl 3,4-dihydroisoquinoline-2,3(1H)-dicarboxylate] |  | significant increase in luciferase expression compared with SR8278; also recorded: significant antagonistic activity | significant antagonistic activity | significant antagonistic activity | Effect on REV-ERBα activity (Bmal-luc luciferase expression) (REV-ERBα; FIG. 7, three independent experiments in triplicate): significant antagonistic activity
CCOC(=O)C1Cc2ccccc2CN1C(=O)c1ccn(C)n1 (racemic) [Compound 19] | antagonistic activity |  |  |  | 
